Data published in patent publication US7968532B2 (Besins Healthcare Luxembourg, priority 2003, dated 2011).
Like-named read-outs stand apart in the source and are kept apart here. Each block holds one compound with its values, some of them ahead of it.

Experiments:
[1] = Follow-up study: percutaneous Z-[^3H]-4-hydroxy tamoxifen or Z-[^3H]-tamoxifen on the breast before surgery; tissue, plasma, urine radioactivity; conditions: for Share of radioactivity in blood: 24 hours after percutaneous 4-hydroxy tamoxifen
Procedure: (§1) The patients received [^3H]-labeled drug applied directly on the affected breasts at specified intervals ranging from 12 hours to 7 days before surgery to excise diseased tissue. Breast tissue from three regions: the tumor, tissue immediately surrounding the tumor, and normal tissue, was excised and immediately frozen in liquid nitrogen. Additionally, plasma and urine samples were obtained at scheduled intervals and frozen until analysis.

[2] = topical application
Procedure: (§2) Each participant applied the gel daily for the duration of two menstrual cycles.
(§3) On the first day of the following menstruation, treatment, which consisted of daily application of the gel over two menstrual cycles, began. Blood samples were collected 24 hours following the morning application of gel on days 7, 20 and 25 of the first and second cycles. On the last day of administration, day 25 of the second menstrual cycle, serial blood samples were collected prior to application and at 0.5, 1, 1.5, 2, 3, 4, 6, 12, 18, 24, 36, 48, and 72 hours after application of the gel.

[3] = Pharmacokinetics of 4-hydroxy tamoxifen gel in healthy premenopausal women; assay type: in vivo, human
Procedure: as §2
At the end of a menstrual cycle, each patient received a single dose, after which serial blood samples were collected at 0, 0.5, 1, 1.5, 2, 3, 4, 6, 12, 18, 24, 36, 48, and 72 hours.
as §3

[4] = in vivo
Procedure: as §1

[5] = human, in vivo; cited from earlier work
rat liver = conditions: cited from earlier work
[6] = one person in Group 2 (0.5 mg/day gel, seventh day); one person in Group 1 (oral tamoxifen, fifth day); cited from earlier work

Percentage of radioactivity in breast tissue as Z and E isomer ([1]; day 7 after percutaneous administration): 33%
Structure (SMILES): CC/C(=C(/c1ccc(O)cc1)c1ccc(OCCN(C)C)cc1)c1ccccc1 (single isomer, unassigned) [E isomer]

Plasma concentration of 4-hydroxy tamoxifen, Mean ± SD (Range) ([3]; 0.5 mg/day, gel 20 mg/100 g, n=12, First cycle Day 1, 0 hr): (0-17.2) pg/mL | Plasma concentration of 4-hydroxy tamoxifen, Mean ± SD (Range) ([3]; 0.5 mg/day, gel 20 mg/100 g, n=12, Second cycle, +8 days, LOQ <5 pg/mL): <LOQ | Plasma concentration of 4-hydroxy tamoxifen, Mean ± SD (Range) ([3]; 0.5 mg/day, gel 20 mg/100 g, n=12, Second cycle, +12 days (maximum)): ≤ 9.09 pg/mL | Plasma concentration of 4-hydroxy tamoxifen, Mean ± SD (Range) ([3]; 0.5 mg/day, gel 20 mg/100 g, n=12, Second cycle, +20 days): 0 pg/mL | Plasma concentration of 4-hydroxy tamoxifen, Mean ± SD (Range) ([3]; 1 mg/day, gel 20 mg/100 g, n=8, First cycle Day 1, 0 hr): (0-13.9) pg/mL | Plasma concentration of 4-hydroxy tamoxifen, Mean ± SD (Range) ([3]; 1 mg/day, gel 20 mg/100 g, n=8, Second cycle, +20 days, LOQ <5 pg/mL): <LOQ | Plasma concentration of 4-hydroxy tamoxifen, Mean ± SD (Range) ([3]; 1 mg/day, gel 57 mg/100 g, n=12, First cycle Day 1, 0 hr): (0-9.5) pg/mL | Plasma concentration of 4-hydroxy tamoxifen, Mean ± SD (Range) ([3]; 1 mg/day, gel 57 mg/100 g, n=12, Second cycle, +8 days): (0-14.8) pg/mL | Plasma concentration of 4-hydroxy tamoxifen, Mean ± SD (Range) ([3]; 2 mg/day, gel 57 mg/100 g, n=12, First cycle Day 1, 0 hr): (0-0) pg/mL | Plasma concentration of 4-hydroxy tamoxifen, Mean ± SD (Range) ([3]; 2 mg/day, gel 57 mg/100 g, n=12, Second cycle, +12 days): (0-30.4) pg/mL | Share of radioactivity in blood [4]: 68% | Time of plateau of radioactivity in blood [4]: 4 to 6 days
Structure (SMILES): CCC(=C(c1ccc(O)cc1)c1ccc(OCCN(C)C)cc1)c1ccccc1 [4-hydroxy tamoxifen, 1-[4-(2-N-dimethylaminoethoxy)phenyl]-1-(4-hydroxyphenyl)-2-phenylbut-1-ene]
Systemic effects [2]: no detectable laboratory or clinical evidence of systemic effects | Metabolism in cytosolic and nuclear fractions of breast tissue [4]: remained unmetabolized except for limited isomerization from the Z to the E form | Subcellular distribution in breast tissue [4]: concentrated predominantly in the cytosolic and nuclear fractions of breast tissue | Radioactivity in excised tissue and normal breast tissue surrounding the tumor [5]: contained radioactivity | Rat liver carcinogen (rat liver; in vivo): not

Percentage of radioactivity in breast tissue as Z and E isomer [4]: 32%
Structure (SMILES): CC/C(=C(\c1ccc(O)cc1)c1ccc(OCCN(C)C)cc1)c1ccccc1 [Z-4-hydroxy tamoxifen]

The remaining lines, values behind:

Structure (SMILES): CCC(=C(c1ccc(O)cc1)c1ccc(OCCNC)cc1)c1ccccc1 [N-Desmethyl-4-Hydroxy Tamoxifen]
Share of radioactivity in blood [1]: 18%

Structure (SMILES): CCC(=C(c1ccc(O)cc1)c1ccc(O)cc1)c1ccccc1 [Bisphenol]
Share of radioactivity in blood [1]: 11%

Structure (SMILES): CC/C(=C(\c1ccccc1)c1ccc(OCCN(C)C)cc1)c1ccccc1 [tamoxifen, reference compound]
Reported side effects [6]: hot flashes and mild vaginitis | Rat liver carcinogen (rat liver): is a potent rat liver carcinogen
